Measured values from patent publication US12077503B2, “Substituted cyclic amides and their use as herbicides” (FMC CORPORATION, priority 2015, dated 2024).

Tests used:
Experiment in all cases: Test E preemergence
Assay type in all cases: in vivo
[1] = tested on: Kochia (Kochia scoparia); conditions: scale 0 to 100
Outline: (§1)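 Visual ratings from 0 (no effect) to 100 (complete control) were made versus controls 14 to 21 d after treatment. Seeds in silt loam were treated preemergence, or plants 2 to 18 cm tall in peat-based medium postemergence, with the test chemical in a surfactant-containing, non-phytotoxic solvent mixture, then held in a greenhouse.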

[2] = tested on: Panicum, fall (fall Panicum, Panicum dichotomiflorum); conditions: scale 0 to 100
Outline: as §1

[3] = tested on: arrowleaf Sida (Sida rhombifolia); conditions: scale 0 to 100
Outline: as §1

[4] = tested on: barnyardgrass (Echinochloa crus-galli); conditions: scale 0 to 100
Outline: as §1

[5] = tested on: corn (Zea mays); conditions: scale 0 to 100
Outline: as §1

[6] = tested on: crabgrass, Brazil (Brazilian crabgrass, Digitaria horizontalis); conditions: scale 0 to 100
Outline: as §1

[7] = tested on: crabgrass, large (large crabgrass, Digitaria sangumnalis); conditions: scale 0 to 100
Outline: as §1

[8] = tested on: dayflower, VA (Virginia dayflower, Commelina virginica); conditions: scale 0 to 100
Outline: as §1

[9] = tested on: field bindweed (Convolvulus arvensis); conditions: scale 0 to 100
Outline: as §1

[10] = tested on: foxtail, green (green foxtail, Setaria viridis); conditions: scale 0 to 100
Outline: as §1

[11] = tested on: goosegrass (Eleusine indica); conditions: scale 0 to 100
Outline: as §1

[12] = tested on: horseweed (Conyza canadensis); conditions: 31 g ai/ha, scale 0 to 100
Outline: as §1

[13] = tested on: lambsquarters (Chenopodium album); conditions: scale 0 to 100
Outline: as §1

[14] = tested on: pigweed, palmer (palmer pigweed, Amaranthus palmeri); conditions: scale 0 to 100
Outline: as §1

[15] = tested on: ragweed (common ragweed, Ambrosia elatior); conditions: scale 0 to 100
Outline: as §1

[16] = tested on: ryegrass, Italian (Italian ryegrass, Lolium multiflorum); conditions: scale 0 to 100
Outline: as §1

[17] = tested on: sandbur (southern sandbur, Cenchrus echinatus); conditions: scale 0 to 100
Outline: as §1

[18] = tested on: soybean (Glycine max); conditions: scale 0 to 100
Outline: as §1

[19] = tested on: surinam grass (Brachiaria decumbens); conditions: scale 0 to 100
Outline: as §1

[20] = tested on: velvetleaf (Abutilon theophrasti); conditions: scale 0 to 100
Outline: as §1

[21] = tested on: waterhemp (common waterhemp, Amaranthus rudis); conditions: scale 0 to 100
Outline: as §1

CN1CC(c2cccc(C(F)(F)F)c2)C(C(=O)Nc2ccccc2S(C)(=O)=O)C1=O (centres unmarked) [Compound 637]
Plant response rating: Kochia ([1]; 31 g ai/ha): 0 | Plant response rating: Kochia ([1]; 62 g ai/ha): 40 | Plant response rating: Kochia ([1]; 125 g ai/ha): 90 | Plant response rating: Kochia ([1]; 250 g ai/ha): 90 | Plant response rating: Panicum, Fall ([2]; 31 g ai/ha): 0 | Plant response rating: Panicum, Fall ([2]; 62 g ai/ha): 35 | Plant response rating: Panicum, Fall ([2]; 125 g ai/ha): 90 | Plant response rating: Panicum, Fall ([2]; 250 g ai/ha): 95 | Plant response rating: Arrowleaf Sida ([3]; 31 g ai/ha): 0 | Plant response rating: Arrowleaf Sida ([3]; 62 g ai/ha): 0 | Plant response rating: Arrowleaf Sida ([3]; 125 g ai/ha): 0 | Plant response rating: Arrowleaf Sida ([3]; 250 g ai/ha): 0 | Plant response rating: Barnyardgrass ([4]; 31 g ai/ha): 85 | Plant response rating: Barnyardgrass ([4]; 62 g ai/ha): 70 | Plant response rating: Barnyardgrass ([4]; 125 g ai/ha): 80 | Plant response rating: Barnyardgrass ([4]; 250 g ai/ha): 95 | Plant response rating: Corn ([5]; 31 g ai/ha): 0 | Plant response rating: Corn ([5]; 62 g ai/ha): 0 | Plant response rating: Corn ([5]; 125 g ai/ha): 35 | Plant response rating: Corn ([5]; 250 g ai/ha): 70 | Plant response rating: Crabgrass, Brazil ([6]; 31 g ai/ha): 75 | Plant response rating: Crabgrass, Brazil ([6]; 62 g ai/ha): 85 | Plant response rating: Crabgrass, Brazil ([6]; 125 g ai/ha): 98 | Plant response rating: Crabgrass, Brazil ([6]; 250 g ai/ha): 95 | Plant response rating: Crabgrass, Large ([7]; 31 g ai/ha): 90 | Plant response rating: Crabgrass, Large ([7]; 62 g ai/ha): 95 | Plant response rating: Crabgrass, Large ([7]; 125 g ai/ha): 98 | Plant response rating: Crabgrass, Large ([7]; 250 g ai/ha): 98 | Plant response rating: Dayflower, VA ([8]; 31 g ai/ha): 0 | Plant response rating: Dayflower, VA ([8]; 62 g ai/ha): 0 | Plant response rating: Dayflower, VA ([8]; 125 g ai/ha): 0 | Plant response rating: Dayflower, VA ([8]; 250 g ai/ha): 20 | Plant response rating: Field Bindweed ([9]; 31 g ai/ha): 0 | Plant response rating: Field Bindweed ([9]; 62 g ai/ha): 0 | Plant response rating: Field Bindweed ([9]; 125 g ai/ha): 0 | Plant response rating: Field Bindweed ([9]; 250 g ai/ha): 35 | Plant response rating: Foxtail, Green ([10]; 31 g ai/ha): 65 | Plant response rating: Foxtail, Green ([10]; 62 g ai/ha): 75 | Plant response rating: Foxtail, Green ([10]; 125 g ai/ha): 95 | Plant response rating: Foxtail, Green ([10]; 250 g ai/ha): 98 | Plant response rating: Goosegrass ([11]; 31 g ai/ha): 0 | Plant response rating: Goosegrass ([11]; 62 g ai/ha): 0 | Plant response rating: Goosegrass ([11]; 125 g ai/ha): 65 | Plant response rating: Goosegrass ([11]; 250 g ai/ha): 90 | Plant response rating: Horseweed [12]: 0 | Plant response rating: Lambsquarters ([13]; 62 g ai/ha): 0 | Plant response rating: Lambsquarters ([13]; 125 g ai/ha): 90 | Plant response rating: Lambsquarters ([13]; 250 g ai/ha): 80 | Plant response rating: Pigweed, Palmer ([14]; 31 g ai/ha): 0 | Plant response rating: Pigweed, Palmer ([14]; 62 g ai/ha): 0 | Plant response rating: Pigweed, Palmer ([14]; 125 g ai/ha): 0 | Plant response rating: Pigweed, Palmer ([14]; 250 g ai/ha): 65 | Plant response rating: Ragweed ([15]; 31 g ai/ha): 0 | Plant response rating: Ragweed ([15]; 62 g ai/ha): 0 | Plant response rating: Ragweed ([15]; 125 g ai/ha): 20 | Plant response rating: Ragweed ([15]; 250 g ai/ha): 85 | Plant response rating: Ryegrass, Italian ([16]; 31 g ai/ha): 0 | Plant response rating: Ryegrass, Italian ([16]; 62 g ai/ha): 50 | Plant response rating: Ryegrass, Italian ([16]; 125 g ai/ha): 35 | Plant response rating: Ryegrass, Italian ([16]; 250 g ai/ha): 35 | Plant response rating: Sandbur ([17]; 31 g ai/ha): 0 | Plant response rating: Sandbur ([17]; 62 g ai/ha): 35 | Plant response rating: Sandbur ([17]; 125 g ai/ha): 90 | Plant response rating: Sandbur ([17]; 250 g ai/ha): 90 | Plant response rating: Soybean ([18]; 31 g ai/ha): 0 | Plant response rating: Soybean ([18]; 62 g ai/ha): 10 | Plant response rating: Soybean ([18]; 125 g ai/ha): 25 | Plant response rating: Soybean ([18]; 250 g ai/ha): 35 | Plant response rating: Surinam Grass ([19]; 31 g ai/ha): 10 | Plant response rating: Surinam Grass ([19]; 62 g ai/ha): 50 | Plant response rating: Surinam Grass ([19]; 125 g ai/ha): 75 | Plant response rating: Surinam Grass ([19]; 250 g ai/ha): 90 | Plant response rating: Velvetleaf ([20]; 31 g ai/ha): 0 | Plant response rating: Velvetleaf ([20]; 62 g ai/ha): 0 | Plant response rating: Velvetleaf ([20]; 125 g ai/ha): 30 | Plant response rating: Velvetleaf ([20]; 250 g ai/ha): 35 | Plant response rating: Waterhemp ([21]; 31 g ai/ha): 50 | Plant response rating: Waterhemp ([21]; 62 g ai/ha): 40 | Plant response rating: Waterhemp ([21]; 125 g ai/ha): 65 | Plant response rating: Waterhemp ([21]; 250 g ai/ha): 85
